Test results as given in patent publication US9580390B2, “Indazole compounds as kinase inhibitors and method of treating cancer with same” (University Health Network, priority 2011, dated 2017).
Where two headings read alike, the source gives them in different places.

Tests used:
Assay type in all cases: cell-based
[1] = tested on: TICs (Colon 12); experiment: Colon tumor-initiating cell growth inhibition (Alamar Blue); conditions: 216 h, 9 days, read-out: Tumor Initiating Cell GI50 Range Colon 12
[2] = tested on: colon cancer cells (HCT116); experiment: Cancer cell line growth inhibition (SRB assay); conditions: Homo sapiens, HCT-116, read-out: Cancer Cell Line GI50 Range HCT116
[3] = tested on: TICs (Ovarian 2393A); experiment: Ovarian tumor-initiating cell growth inhibition (Alamar Blue); conditions: 144 h, 6 days, read-out: Tumor Initiating Cell GI50 Range Ovarain 2393A
[4] = tested on: ovarian cancer cells (PA-1); experiment: Cancer cell line growth inhibition (SRB assay); conditions: read-out: Cancer Cell Line GI50 Range PA-1
[5] = HCT116 colon cancer cells, SRB assay
[6] = PA-1 ovarian cancer cells, SRB assay

## CN1CCC(Oc2ccc(-c3n[nH]c4ccc(C(=O)NC(c5cccs5)C5CC5)cc34)cc2)CC1 (stereo not shown) [Example A147, N-(cyclopropyl(thiophen-2-yl)methyl)-3-(4-((1-methylpiperidin-4-yl)oxy)phenyl)-1H-indazole-5-carboxamide]
[1]; colon TICs, Alamar Blue
  GI50: 100 to 500 nM
[2]; [5]
  GI50: < 100 nM
[3]; ovarian TICs, Alamar Blue
  GI50: < 100 nM
[4]; [6]
  GI50: < 100 nM

## COc1ccccc1C(NC(=O)c1ccc2[nH]nc(-c3ccc(OC4CCN(C)CC4)cc3)c2c1)C1CC1 (stereo not shown) [Example A151, N-(cyclopropyl(2-methoxyphenyl)methyl)-3-(4-((1-methylpiperidin-4-yl)oxy)phenyl)-1H-indazole-5-carboxamide]
[1]; colon TICs, Alamar Blue
  GI50: 100 to 500 nM
[2]; [5]
  GI50: < 100 nM
[3]; ovarian TICs, Alamar Blue
  GI50: 100 to 500 nM
[4]; [6]
  GI50: 100 to 500 nM

## O=C(NC(c1ccccc1)C1CC1)c1ccc2[nH]nc(-c3ccc(OC4CCN(C5COC5)CC4)cc3)c2c1 (stereo not shown) [Example A157, N-(cyclopropyl(phenyl)methyl)-3-(4-((1-(oxetan-3-yl)piperidin-4-yl)oxy)phenyl)-1H-indazole-5-carboxamide]
[1]; colon TICs, Alamar Blue
  GI50: 100 to 500 nM
[2]; [5]
  GI50: 100 to 500 nM
[3]; ovarian TICs, Alamar Blue
  GI50: 100 to 500 nM
[4]; [6]
  GI50: 100 to 500 nM

## O=CN1CCC(Oc2ccc(-c3n[nH]c4ccc(C(=O)NC(c5ccccn5)C5CC5)cc34)cc2)CC1 (stereo not shown) [Example A160, N-(cyclopropyl(pyridin-2-yl)methyl)-3-(4-((1-formylpiperidin-4-yl)oxy)phenyl)-1H-indazole-5-carboxamide]
[1]; colon TICs, Alamar Blue
  GI50: 100 to 500 nM
[2]; [5]
  GI50: < 100 nM
[3]; ovarian TICs, Alamar Blue
  GI50: 100 to 500 nM
[4]; [6]
  GI50: 100 to 500 nM

## CN1CCC(Oc2ccc(-c3n[nH]c4ccc(C(=O)NC(c5ccccc5)C5CCCCC5)cc34)cc2)CC1 (stereo not shown) [Example A170, N-(cyclohexyl(phenyl)methyl)-3-(4-((1-methylpiperidin-4-yl)oxy)phenyl)-1H-indazole-5-carboxamide]
[1]; colon TICs, Alamar Blue
  GI50: > 500 nM
[2]; [5]
  GI50: > 500 nM
[3]; ovarian TICs, Alamar Blue
  GI50: > 500 nM
[4]; [6]
  GI50: > 500 nM

## O=C(NC(c1ccccn1)C1CC1)c1ccc2[nH]nc(-c3ccc(OC4CCN(C5COC5)CC4)cc3)c2c1 (stereo not shown) [Example A171, N-(cyclopropyl(pyridin-2-yl)methyl)-3-(4-((1-(oxetan-3-yl)piperidin-4-yl)oxy)phenyl)-1H-indazole-5-carboxamide]
[1]; colon TICs, Alamar Blue
  GI50: 100 to 500 nM
[2]; [5]
  GI50: < 100 nM
[3]; ovarian TICs, Alamar Blue
  GI50: < 100 nM
[4]; [6]
  GI50: < 100 nM

## O=C(Nc1ccc2[nH]nc(-c3ccc(N4CCOCC4)cc3)c2c1)C(c1ccsc1)N1CCC1 (stereo not shown) [Example A172, 2-(azetidin-1-yl)-N-(3-(4-morpholinophenyl)-1H-indazol-5-yl)-2-(thiophen-3-yl)acetamide]
[1]; colon TICs, Alamar Blue
  GI50: < 100 nM
[2]; [5]
  GI50: < 100 nM
[3]; ovarian TICs, Alamar Blue
  GI50: < 100 nM
[4]; [6]
  GI50: < 100 nM

## COC[C@@H](NC(=O)c1ccc2[nH]nc(-c3ccc(OC4CCN(C)CC4)cc3)c2c1)c1ccccc1 [Example A173, (S)-N-(2-methoxy-1-phenylethyl)-3-(4-((1-methylpiperidin-4-yl)oxy)phenyl)-5-carboxamide]
[1]; colon TICs, Alamar Blue
  GI50: > 500 nM
[2]; [5]
  GI50: 100 to 500 nM
[3]; ovarian TICs, Alamar Blue
  GI50: 100 to 500 nM
[4]; [6]
  GI50: 100 to 500 nM

## CC[C@@H](NC(=O)c1ccc2[nH]nc(-c3ccc(OC4CCN(C)CC4)cc3)c2c1)c1cccc(OC)c1 [Example A174, (R)-N-(1-(3-methoxyphenyl)propyl)-3-(4-((1-methylpiperidin-4-yl)oxy)phenyl)-1H-indazole-5-carboxamide]
[1]; colon TICs, Alamar Blue
  GI50: 100 to 500 nM
[2]; [5]
  GI50: < 100 nM
[3]; ovarian TICs, Alamar Blue
  GI50: 100 to 500 nM
[4]; [6]
  GI50: 100 to 500 nM

## CN1CCC(Oc2ccc(-c3n[nH]c4ccc(C(=O)NC(c5ccccc5)C5CCOCC5)cc34)cc2)CC1 (stereo not shown) [Example A177, 3-(4-((1-methylpiperidin-4-yl)oxy)phenyl)-N-(phenyl(tetrahydro-2H-pyran-4-yl)methyl)-1H-indazole-5-carboxamide]
[1]; colon TICs, Alamar Blue
  GI50: 100 to 500 nM
[2]; [5]
  GI50: < 100 nM
[3]; ovarian TICs, Alamar Blue
  GI50: 100 to 500 nM
[4]; [6]
  GI50: 100 to 500 nM

## CN1[C@@H]2CC[C@H]1C[C@@H](Oc1ccc(-c3n[nH]c4ccc(C(=O)NC(c5ccccc5)C5CC5)cc34)cc1)C2 (stereo partly shown) [Example A178]
[1]; colon TICs, Alamar Blue
  GI50: 100 to 500 nM
[2]; [5]
  GI50: < 100 nM
[3]; ovarian TICs, Alamar Blue
  GI50: 100 to 500 nM
[4]; [6]
  GI50: < 100 nM

## CC(C)(O)C1CCN(c2ccc(-c3n[nH]c4ccc(C(=O)NC(c5ccccn5)C5CC5)cc34)cc2)CC1 (stereo not shown) [Example A180, N-(cyclopropyl(pyridin-2-yl)methyl)-3-(4-(4-(2-hydroxypropan-2-yl)piperidin-1-yl)phenyl)-1H-indazole-5-carboxamide]
[1]; colon TICs, Alamar Blue
  GI50: 100 to 500 nM
[2]; [5]
  GI50: < 100 nM
[3]; ovarian TICs, Alamar Blue
  GI50: 100 to 500 nM
[4]; [6]
  GI50: 100 to 500 nM

## O=CN1CCC(Oc2ccc(-c3n[nH]c4ccc(C(=O)NC(c5ccccc5F)C5CC5)cc34)cc2)CC1 (stereo not shown) [Example A182]
[1]; colon TICs, Alamar Blue
  GI50: < 100 nM
[2]; [5]
  GI50: < 100 nM
[3]; ovarian TICs, Alamar Blue
  GI50: < 100 nM
[4]; [6]
  GI50: < 100 nM

## CN1CCC(Oc2ccc(-c3n[nH]c4ccc(NC(=O)C(OC5CCCC5)c5ccccc5)cc34)cc2)CC1 (stereo not shown) [Example A183, 2-(cyclopentyloxy)-N-(3-(4-((1-methylpiperidin-4-yl)oxy)phenyl)-1H-indazol-5-yl)-2-phenylacetamide]
[1]; colon TICs, Alamar Blue
  GI50: > 500 nM
[2]; [5]
  GI50: 100 to 500 nM
[3]; ovarian TICs, Alamar Blue
  GI50: > 500 nM
[4]; [6]
  GI50: 100 to 500 nM

## O=C(Nc1ccc2[nH]nc(-c3ccc(OC4CCN(C5COC5)CC4)cc3)c2c1)C(c1ccccc1)C1CC1 (stereo not shown) [Example A185, 2-cyclopropyl-N-(3-(4-((1-(oxetan-3-yl)piperidin-4-yl)oxy)phenyl)-1H-indazol-5-yl)-2-phenylacetamide]
[1]; colon TICs, Alamar Blue
  GI50: 100 to 500 nM
[2]; [5]
  GI50: 100 to 500 nM
[3]; ovarian TICs, Alamar Blue
  GI50: 100 to 500 nM
[4]; [6]
  GI50: 100 to 500 nM

## O=C(Nc1ccc2[nH]nc(-c3ccc(OC4CN(C5COC5)C4)cc3)c2c1)C(c1ccsc1)N1CCCC1 (stereo not shown) [Example A189, N-(3-(4-((1-(oxetan-3-yl)azetidin-3-yl)oxy)phenyl)-1H-indazol-5-yl)-2-(pyrrolidin-1-yl)-2-(thiophen-3-yl)acetamide]
[1]; colon TICs, Alamar Blue
  GI50: > 500 nM
[2]; [5]
  GI50: < 100 nM
[3]; ovarian TICs, Alamar Blue
  GI50: > 500 nM
[4]; [6]
  GI50: < 100 nM

## O=C(NC(c1ccccc1)C1CC1)c1ccc2[nH]nc(-c3ccc(OC4CN(C5COC5)C4)cc3)c2c1 (stereo not shown) [Example A190, N-(cyclopropyl(phenyl)methyl)-3-(4-((1-(oxetan-3-yl)azetidin-3-yl)oxy)phenyl)-1H-indazole-5-carboxamide]
[1]; colon TICs, Alamar Blue
  GI50: 100 to 500 nM
[2]; [5]
  GI50: 100 to 500 nM
[3]; ovarian TICs, Alamar Blue
  GI50: 100 to 500 nM
[4]; [6]
  GI50: 100 to 500 nM

## CN1CCC(Oc2ccc(-c3n[nH]c4ccc(NC(=O)C(c5ccsc5)N5CCC5)cc34)cc2)CC1 (stereo not shown) [Example A191, 2-(azetidin-1-yl)-N-(3-(4-((1-methylpiperidin-4-yl)oxy)phenyl)-1H-indazol-5-yl)-2-(thiophen-3-yl)acetamide]
[1]; colon TICs, Alamar Blue
  GI50: 100 to 500 nM
[2]; [5]
  GI50: < 100 nM
[3]; ovarian TICs, Alamar Blue
  GI50: < 100 nM
[4]; [6]
  GI50: < 100 nM

## O=C(N[C@H](c1ccccn1)C1CC1)c1ccc2[nH]nc(-c3ccc(OC4CCN(C5COC5)CC4)cc3)c2c1 [Example A197, (S)-N-(cyclopropyl(pyridin-2-yl)methyl)-3-(4-((1-(oxetan-3-yl)piperidin-4-yl)oxy)phenyl)-1H-indazole-5-carboxamide]
[1]; colon TICs, Alamar Blue
  GI50: < 100 nM
[2]; [5]
  GI50: < 100 nM
[3]; ovarian TICs, Alamar Blue
  GI50: < 100 nM
[4]; [6]
  GI50: < 100 nM

## CN1CCC(Oc2ccc(-c3n[nH]c4ccc(C(=O)NC(c5ccccn5)C5CC5)cc34)cc2Cl)CC1 (stereo not shown) [Example A198, 3-(3-chloro-4-((1-methylpiperidin-4-yl)oxy)phenyl)-N-(cyclopropyl(pyridin-2-yl)methyl)-1H-indazole-5-carboxamide]
[1]; colon TICs, Alamar Blue
  GI50: 100 to 500 nM
[2]; [5]
  GI50: < 100 nM
[3]; ovarian TICs, Alamar Blue
  GI50: 100 to 500 nM
[4]; [6]
  GI50: 100 to 500 nM

## O=C(Nc1ccc2[nH]nc(-c3ccc(N4CCC(O)CC4)cc3)c2c1)C(c1ccsc1)N1CCC1 (stereo not shown) [Example A200, 2-(azetidin-1-yl)-N-(3-(4-(4-hydroxypiperidin-1-yl)phenyl)-1H-indazol-5-yl)-2-(thiophen-3-yl)acetamide]
[1]; colon TICs, Alamar Blue
  GI50: 100 to 500 nM
[2]; [5]
  GI50: < 100 nM
[3]; ovarian TICs, Alamar Blue
  GI50: < 100 nM
[4]; [6]
  GI50: < 100 nM

## CC(C)(O)C1CCN(c2ccc(-c3n[nH]c4ccc(NC(=O)C(c5ccsc5)N5CCC5)cc34)cc2)CC1 (stereo not shown) [Example A201, 2-(azetidin-1-yl)-N-(3-(4-(4-(2-hydroxypropan-2-yl)piperidin-1-yl)phenyl)-1H-indazol-5-yl)-2-(thiophen-3-yl)acetamide]
[1]; colon TICs, Alamar Blue
  GI50: < 100 nM
[2]; [5]
  GI50: < 100 nM
[3]; ovarian TICs, Alamar Blue
  GI50: < 100 nM
[4]; [6]
  GI50: < 100 nM

## O=CN1CCC(Oc2ccc(-c3n[nH]c4ccc(C(=O)N[C@H](c5ccccn5)C5CC5)cc34)cc2)CC1 [Example A204, (S)-N-(cyclopropyl(pyridin-2-yl)methyl)-3-(4-((1-formylpiperidin-4-yl)oxy)phenyl)-1H-indazole-5-carboxamide]
[1]; colon TICs, Alamar Blue
  GI50: < 100 nM
[2]; [5]
  GI50: < 100 nM
[3]; ovarian TICs, Alamar Blue
  GI50: < 100 nM
[4]; [6]
  GI50: < 100 nM

## CN1CCC(Oc2ccc(-c3n[nH]c4ccc(C(=O)NC(c5ccccn5)C5CCC5)cc34)cc2)CC1 (stereo not shown) [Example A210, N-(cyclobutyl(pyridin-2-yl)methyl)-3-(4-((1-methylpiperidin-4-yl)oxy)phenyl)-1H-indazole-5-carboxamide]
[1]; Colon 12 TICs
  GI50: 100 to 500 nM
[2]
  GI50: < 100 nM
[3]; Ovarian 2393A TICs
  GI50: 100 to 500 nM
[4]; Homo sapiens, PA-1
  GI50: < 100 nM

## O=CN1CCC(Oc2ccc(-c3n[nH]c4ccc(C(=O)N[C@H](c5ncccc5Cl)C5CC5)cc34)cc2)CC1 [Example A212, (S)-N-((3-chloropyridin-2-yl)(cyclopropyl)methyl)-3-(4-((1-formylpiperidin-4-yl)oxy)phenyl)-1H-indazole-5-carboxamide]
[1]; Colon 12 TICs
  GI50: 100 to 500 nM
[2]
  GI50: < 100 nM
[3]; Ovarian 2393A TICs
  GI50: < 100 nM
[4]; Homo sapiens, PA-1
  GI50: < 100 nM
